Data on one compound can be found in article PMC8778445, “HPLC-MS Profiling, Antioxidant, Antimicrobial, Antidiabetic, and Cytotoxicity Activities of Arthrocnemum indicum (Willd.) Moq. Extracts” (Plants, 2022).

The test has as its target T1, Intestinal Alpha-glucosidase type I (α-glucosidase).
T1 construct: gene MAL12; commercial enzyme (Sigma-Aldrich), no catalogue number
As to the kind of experiment: alpha-glucosidase inhibition assay. Format: biochemical. The note with it: positive control; 4-nitrophenyl β-d-glucopyranoside listed among reagents (beta anomer as printed); pH, temperature not given. From the text: alpha-glucosidase inhibition assay on Intestinal Alpha-glucosidase type I (α-glucosidase)

Regarding `C[C@H]1O[C@H](O[C@H]2[C@H](O)[C@@H](O)[C@@H](O[C@H]3[C@H](O)[C@@H](O)C(O)O[C@@H]3CO)O[C@@H]2CO)[C@H](O)[C@@H](O)[C@@H]1N[C@H]1C=C(CO)[C@@H](O)[C@H](O)[C@H]1O` (stereo partly shown) [acarbose], the “α-Glucosidase (IC50 mg/mL)” value was 1.12 ± 0.08 mg/mL.
